Measurements as given in US9980927B2, “Use of tapentadol for inhibiting and/or treating depression and anxiety” (Gruenenthal GmbH, priority 2011, dated 2018).

Columns and labels:
Format in all cases: in vivo, human patients
[1] = tested on: patients with inadequately managed, severe chronic low back pain with or without a neuropathic pain component; experiment: Patient Global Impression of Change (PGIC), same trial
Description: (§1) This was a multicenter, multinational, open-label, effectiveness phase IIIb trial to evaluate effectiveness and safety of tapentadol prolonged release treatment in patients with inadequately managed, severe chronic low back pain with or without a neuropathic pain component. Patients taking WHO Step II analgesics discontinued those analgesics before starting study medication; patients taking Step I analgesics and/or centrally acting co-analgesics continued on the same dose. […] All patients received tapentadol prolonged release (50-250 mg bid) for up to 12 weeks (5-week titration period and a 7-week maintenance period). Tapentadol immediate release (IR) 50 mg (twice a day, hours apart) was permitted (combined total daily dose of tapentadol prolonged release and tapentadol IR, 500 mg/day). The primary efficacy endpoint was the change from Baseline to Week 6 (when tapentadol prolonged release doses were stable) in average pain intensity on the 11-point NRS-3 using the last observation carried forward (LOCF) for imputing missing scores. The painDETECT questionnaire was used to evaluate the likelihood of a neuropathic pain component of low back pain; patients were classified as painDETECT “negative,” “unclear,” or “positive.” The population of patients classified as painDETECT negative was limited to approximately 30% of the total population.
(§2) All subjects completed Short Form-36 (SF-36) and EuroQol-5 Dimension (EQ-5D) questionnaires and the Hospital Anxiety and Depression Scale (HADS). The Patient Global Impression of Change (PGIC) and Clinical global impression of change (CGIC) were also used as secondary endpoints. For both tests, patients completed the statement, “since I began trial treatment, I would rate my overall condition as,” using 7 possible responses (“very much worse” to “very much improved”). Adverse events were recorded throughout the trial.

[2] = tested on: patients with inadequately managed, severe chronic low back pain with or without a neuropathic pain component; experiment: Clinical global impression of change (CGIC), same trial
Description: as §1, §2

[3] = tested on: patients with inadequately managed, severe chronic low back pain with or without a neuropathic pain component; experiment: Short Form 36 Health Survey (SF-36) scores, same trial; conditions: Baseline to Week 12, all P<0.05
Description: This was a multicenter, multinational, open-label, effectiveness phase IIIb trial to evaluate effectiveness and safety of tapentadol prolonged release treatment in patients with inadequately managed, severe chronic low back pain with or without a neuropathic pain component. Patients taking WHO Step II analgesics discontinued those analgesics before starting study medication; patients taking Step I analgesics and/or centrally acting co-analgesics continued on the same dose. […] All patients received tapentadol prolonged release (50-250 mg bid) for up to 12 weeks (5-week titration period and a 7-week maintenance period). Tapentadol immediate release (IR) 50 mg (twice a day, hours apart) was permitted (combined total daily dose of tapentadol prolonged release and tapentadol IR, 500 mg/day). The primary efficacy endpoint was the change from Baseline to Week 6 (when tapentadol prolonged release doses were stable) in average pain intensity on the 11-point NRS-3 using the last observation carried forward (LOCF) for imputing missing scores. […]
All subjects completed Short Form-36 (SF-36) and EuroQol-5 Dimension (EQ-5D) questionnaires and the Hospital Anxiety and Depression Scale (HADS). […] Adverse events were recorded throughout the trial.

Compound: CC[C@@H](c1cccc(O)c1)[C@@H](C)CN(C)C [tapentadol, (−)-(1R,2R)-3-(3-dimethylamino-1-ethyl-2-methyl-propyl)-phenol]
- percentage of patients reporting “very much improved” or “much improved” on the PGIC ([1]; Week 1 (26/172)): 15.1%
- percentage of patients reporting “very much improved” or “much improved” on the PGIC ([1]; Week 6 (67/138)): 48.6%
- percentage of patients reporting “very much improved” or “much improved” on the PGIC ([1]; Week 12 (61/91)): 67.1%
- percentage of patients reporting “very much improved” or “much improved” on the CGIC ([2]; Week 1 (26/172)): 15.1%
- percentage of patients reporting “very much improved” or “much improved” on the CGIC ([2]; Week 6 (70/138)): 50.7%
- percentage of patients reporting “very much improved” or “much improved” on the CGIC ([2]; Week 12 (62/91)): 68.2%
- SF-36 physical functioning, bodily pain, general health, role-emotional and physical component summary scores ([3]; patients painDETECT negative or unclear/positive): improved
- SF-36 role-physical, vitality, social functioning, mental health, reported health transition and mental component summary scores ([3]; patients painDETECT unclear/positive): also improved
